# Experimental data reported in patent US9072766B2, “Methods of treating obesity by inhibiting nicotinamide N-methyl transferase (NNMT)” (Beth Israel Deaconess Medical Center, Inc., priority 2010, dated 2015).
# Columns and labels:
# Format in all cases: cell-based
# [1] = tested on: 3T3-L1 adipocytes; experiment: Oxygen consumption of 3T3-L1 adipocytes
# Description: 3T3-L1 were grown in Dulbecco's Modified Eagle's Medium (Gib-co/Invitrogen, Carlsbad, Calif., USA) with 4.5 g/l glucose and 10% fetal bovine serum. Differentiation was induced in two-day-postconfluent cells by supplementing the media with 1 μM insulin, 100 nM dexamethasone, and 500 μM isobutylmethylxanthine for 48 hours, followed by media supplemented with 1 μM insulin for another 48 hours, then normal media until differentiation day 10. Oxygen consumption was measured with a Rank Brothers oxygen electrode (Rank Brothers Ltd., Cambridge, UK). Cultured cells were trypsinized, counted in a hemocytometer, spun down, and resuspended in respiration buffer (PBS, 2% BSA, 4.5 g/l glucose, 120 mg/l sodium pyruvate) to 1E6/ml. Partial oxygen pressure was recorded using a Rank Brothers digital model 10 and a PowerLab 4/30 data acquisition system (ADInstruments, Colorado Springs, Colo.).
# [2] = tested on: 3T3-L1 adipocytes; experiment: Glucose uptake in 3T3-L1 adipocytes
# Description: 3T3-L1 were grown in Dulbecco's Modified Eagle's Medium (Gib-co/Invitrogen, Carlsbad, Calif., USA) with 4.5 g/l glucose and 10% fetal bovine serum. Differentiation was induced in two-day-postconfluent cells by supplementing the media with 1 μM insulin, 100 nM dexamethasone, and 500 μM isobutylmethylxanthine for 48 hours, followed by media supplemented with 1 μM insulin for another 48 hours, then normal media until differentiation day 10. Fully differentiated 3T3-L1 adipocytes (day 10) in 48-well plates were serum-starved for 1 hour before incubation with Krebs-Ringer-HEPES (KRH) buffer with or without 10 nM insulin for 30 minutes, followed by addition of 1 mM, 100 nCi [3H]-2-deoxyglucose for 10 minutes. Uptake was stopped by lysing the cells with 0.1% sodium dodecyl sulfate (SDS). Lysates were transferred to liquid scintillation cocktail (Fisher […] 50% Plus) and counted in a Beckman LS counter.
# [3] = tested on: 3T3-L1 adipocytes; experiment: Lipolysis in 3T3-L1 adipocytes (glycerol release); settings: cultured 3T3-L1 adipocytes (FIG. 13A)
# Description: 3T3-L1 were grown in Dulbecco's Modified Eagle's Medium (Gib-co/Invitrogen, Carlsbad, Calif., USA) with 4.5 g/l glucose and 10% fetal bovine serum. Differentiation was induced in two-day-postconfluent cells by supplementing the media with 1 μM insulin, 100 nM dexamethasone, and 500 μM isobutylmethylxanthine for 48 hours, followed by media supplemented with 1 μM insulin for another 48 hours, then normal media until differentiation day 10.
# Fully differentiated 3T3-L1 adipocytes (day 10) in 48-well plates were washed, and 100 μl of KRH buffer with 3% BSA and 4 g/l D-glucose with or without 100 nM isoproterenol was added to each well. After 1 hour at 37° C./5% CO2 a 50 μl aliquot from each well was transferred to a 96-well plate; 50 μl of lipolysis assay buffer (Cayman Chemical) were added, and the plate was incubated at room temperature, protected from light, for 30 min. Absorption was measured at 540 nm. A standard curve was included on each plate to allow calculation of the glycerol concentration in the supernatants.
smiles,measurement,setting,value
CNC(=O)c1cccnc1 [N-methylnicotinamide],oxygen consumption in differentiated 3T3-L1 adipocytes,[1]; FIG. 12C,increased
same,oxygen consumption (FIG. 15A),"[1]; text: cultured hepatoma cells, legend: 3T3-L1 adipocytes",stimulated
same,insulin-dependent glucose uptake,[2]; 3T3-L1 adipocytes (FIG. 13B),stimulated
same,basal glucose uptake,[2]; no insulin (FIG. 15B),stimulated
same,submaximally insulin-induced glucose uptake,[2]; submax insulin (FIG. 15C),stimulated
same,"glucose uptake, co-administration with DFMO relative to DFMO alone",[2]; submax insulin stimulation (FIG. 15C),increase
same,lipolysis (glycerol released into the culture supernatant),[3],increased
